{"source": "patent US20210113529A1", "about": "“MEDICINE FOR PREVENTING OR TREATING OPHTHALMIC DISEASE ASSOCIATED WITH ENHANCED INTRAOCULAR NEOVASCULARIZATION AND/OR INTRAOCULAR VASCULAR PERMEABILITY” (KYOTO UNIVERSITY, priority 2018, published 2021)", "key": {"[1]": {"assay": "Body weight in CNV model", "format": "in vivo, mice", "conditions": "oral once daily dosing, vs vehicle group", "excerpt": "A case in which FA was unable to be performed owing to cloudiness caused by a flaw in the eye produced before the FA evaluation and a case in which CNV was connected at the time of the evaluation of the area of CNV were excluded from analysis, and the above-mentioned results were each calculated as a mean of 11 or 12 mice in each group. […] A case in which FA was unable to be performed owing to cloudiness caused by a flaw in the eye produced before the FA evaluation and a case in which CNV was connected at the time of the evaluation of the area of CNV were excluded from analysis, and the above-mentioned results were each calculated as a mean of 12 mice in each group."}, "[2]": {"tested_on": "lymphocytes in the peripheral blood", "assay": "Lymphocyte count in peripheral blood, ddy strain mice", "format": "in vivo", "conditions": "0.03 mg/kg orally twice at an interval of 12 hours, 24 hours from second administration", "method": "Next, 7-week-old mice (Japan SLC, Inc., ddy strain) were orally administered Compound 1 suspended in a vehicle (0.5% MC solution) at a dose of 0.03 mg/kg or 0.3 mg/kg (in terms of free form) twice at an interval of 12 hours in the same manner as in Example 2. A control was administered only the vehicle (vehicle group). Experiments were performed using 6 mice in each group. After 24 hours from the second administration, blood was collected from the abdominal vena cava under isoflurane anesthesia using a heparin-treated syringe, and was mixed with EDTA.2K (1 mg). The lymphocyte count in the collected blood was measured using XT-2000iv (Sysmex Corporation)."}, "[3]": {"tested_on": "retinal vein occlusion (RVO) model", "assay": "RVO model, intravitreal administration: thickness of INL", "format": "in vivo, mice", "conditions": "0.8 ng, 8 ng or 80 ng per eye immediately after laser irradiation, 1 day after irradiation", "method": "Eight-week-old mice (Japan SLC, Inc., ddy strain) were anesthetized by intramuscularly administering 10 mL/kg of a mixed anesthetic solution diluted so as to contain ketamine (120 mg/kg) and xylazine (6 mg/kg). After that, 0.15 mL of rose bengal (20 mg/kg; WAKO) was administered into the tail vein, and a vein three head systems away from the optic nerve head of the right eye of the mice was irradiated with a laser to occlude a retinal vein. For the occlusion, the laser irradiation was performed 10 times to 15 times per vein. For the laser irradiation, an attachment of a fundus photography apparatus Micron 4 (Phoenix Research Laboratories, Inc., Pleasanton, Calif., USA) was used (wavelength: 532 nm, spot size: 50 μm, irradiation time: 5,000 ms, laser output: 50 mW). Three veins were occluded per eye, and it was confirmed with photographs of the fundus that the laser-irradiated veins had been completely occluded. […]\nAfter 1 day from the laser irradiation, the mice were euthanized by cervical dislocation, the eyeball was extirpated, and histological evaluation was performed by a hematoxylin-eosin staining method. In addition, the thickness of the retinal inner nuclear layer (INL) was measured at intervals of 240 μm on both sides, i.e., ear side and nose side from the center of the optic nerve head. […]"}, "[4]": {"target": "S1P2 receptor (Homo sapiens, UniProt O95136)", "sequence (O95136 whole entry)": "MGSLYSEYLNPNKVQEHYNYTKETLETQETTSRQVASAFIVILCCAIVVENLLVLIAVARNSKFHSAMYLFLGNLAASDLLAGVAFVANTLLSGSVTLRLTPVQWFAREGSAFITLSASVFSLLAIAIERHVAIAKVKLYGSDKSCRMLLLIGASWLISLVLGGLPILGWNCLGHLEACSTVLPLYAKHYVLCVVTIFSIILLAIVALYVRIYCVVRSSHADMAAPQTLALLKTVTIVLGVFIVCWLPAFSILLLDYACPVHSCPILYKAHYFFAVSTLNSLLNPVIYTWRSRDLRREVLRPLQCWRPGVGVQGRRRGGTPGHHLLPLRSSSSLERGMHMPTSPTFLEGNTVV", "conditions": "GTP[γ35S] binding assay; report PLoS One, 2014; cited from earlier work"}}}
{"smiles": "C[C@H](Oc1ccc(-c2nc(-c3ccc4[nH]cnc4c3)no2)cc1C(F)(F)F)C(F)(F)F.Cl", "note": "[Compound 1, 5-{5-[3-(trifluoromethyl)-4-{[(2S)-1,1,1-trifluoropropan-2-yl]oxy}phenyl]-1,2,4-oxadiazol-3-yl}-1H-benzimidazole monohydrochloride]", "values": [{"measurement": "change in body weight between the groups before sampling", "setting": "[1]", "value": "a significant change in body weight between the groups before sampling was not found"}, {"measurement": "lymphocytes in the peripheral blood", "setting": "[2]", "value": "did not cause a significant decrease in lymphocytes in the peripheral blood"}, {"measurement": "thickening of the INL (retinal edema)", "setting": "[3]", "value": "ameliorated the thickening of the INL"}, {"measurement": "EC50 for S1P2 receptor agonist activity as compared to that for the S1P1 receptor", "setting": "[4]", "value": "≥ 100", "unit": "fold"}]}
